# Results as given in publication PMC8330742, “New benzothieno[2,3-c]pyridines as non-steroidal CYP17 inhibitors: design, synthesis, anticancer screening, apoptosis induction, and in silico ADME profile studies” (Journal of Enzyme Inhibition and Medicinal Chemistry, 2021).
# Where “and” joins values, the source holds several entries; their conditions need not be identical. Identical values can stand only once.
# Tests used:
# CCRF-CEM = test: NCI-60 SRB screen; type: cell-based; details: for inhibition at 10 µM: single dose 10^−5 M, read-out: Growth inhibition (%);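 for IC50: half-maximal inhibitory concentration read as cell viability unlike GI50 net growth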
# PC-3 = test: NCI-60 SRB screen; type: cell-based, human; details: PC-3; for inhibition at 10 µM: single dose 10^−5 M, read-out: Growth inhibition (%);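 for IC50: half-maximal inhibitory concentration read as cell viability unlike GI50 net growth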
# A498 = test: NCI-60 SRB screen; type: cell-based, human; details: A498; for inhibition at 10 µM: single dose 10^−5 M, read-out: Growth inhibition (%);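 for IC50: half-maximal inhibitory concentration read as cell viability unlike GI50 net growth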
# DU-145 = test: NCI-60 SRB screen; type: cell-based, human; details: DU-145; for inhibition at 10 µM: single dose 10^−5 M, read-out: Growth inhibition (%);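 for IC50: half-maximal inhibitory concentration read as cell viability unlike GI50 net growth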
# MCF7 = test: NCI-60 SRB screen; type: cell-based, human; details: for inhibition at 10 µM: MCF-7, single dose 10^−5 M, read-out: Growth inhibition (%)
# [1] = tested on: breast cancer cell line (MCF-7); test: MTT cytotoxicity assay; type: cell-based, human
# Description: (§1) The MTT method for monitoring in vitro cytotoxicity was used with multiwell plates. Three human cell lines, namely prostate cancer cell line (PC-3), renal cancer cell line (UO-31), and breast cancer cell line (MCF-7) were obtained from the American Type Culture Collection ATCC, Manassas, VA, USA). The cells were trypsinized and seeded in 96 well plates with a density of 1.2 − 1.8 × 10,000 cells/well for 24 h at 37 °C. After treating the cells with five concentrations of compound 5c (0.01, 0.1, 1, 10, 100 µM), an MTT solution (Sigma Co., St. Louis, MO, USA) (5 mg/mL in phosphate buffer solution) was applied to each well and […]. The plates were cultivated in 5% CO2 for 4 h at 37 °C. Successively, the remaining formazan crystals were dissolved in 100 µl of DMSO, and the absorbance was determined with the ROBONIK P2000 spectrophotometer at a wavelength of 570 nm. The obtained values were analysed using Gen5 software (BioTek, UK). The proliferation percentage in each treated cell line was standardised based on their control wells. Both tests have been conducted in triplicate. The IC50 values were calculated using sigmoidal dose-response curve fitting models. […] Each test included a blank containing a complete medium without cells.
# [2] = tested on: renal cancer cell line (UO-31); test: MTT cytotoxicity assay; type: cell-based, human
# Description: as §1
# [3] = tested on: prostate cancer cell line (PC-3); test: MTT cytotoxicity assay; type: cell-based, human
# Description: as §1
# BT-549 = test: NCI-60 SRB screen; type: cell-based, human; details: BT-549; for inhibition at 10 µM: single dose 10^−5 M, read-out: Growth inhibition (%)
# MDA-MB-231/ATCC = test: NCI-60 SRB screen; type: cell-based, human; details: for inhibition at 10 µM: MDA-MB-231, MDAMB231/ATCC, single dose 10^−5 M, read-out: Growth inhibition (%)
# OVCAR-5 = test: NCI-60 SRB screen; type: cell-based, human; details: OVCAR-5; for inhibition at 10 µM: single dose 10^−5 M, read-out: Growth inhibition (%)
# T-47D = test: NCI-60 SRB screen; type: cell-based, human; details: for inhibition at 10 µM: single dose 10^−5 M, read-out: Growth inhibition (%)
# MDA-MB-468 = test: NCI-60 SRB screen; type: cell-based, human; details: MDA-MB-468; for inhibition at 10 µM: single dose 10^−5 M, read-out: Growth inhibition (%)
# MALME-3M = test: NCI-60 SRB screen; type: cell-based, human; details: for inhibition at 10 µM: single dose 10^−5 M, read-out: Growth inhibition (%)
# RPMI-8226 = test: NCI-60 SRB screen; type: cell-based; details: RPMI-8226; for inhibition at 10 µM: single dose 10^−5 M, read-out: Growth inhibition (%)
# SNB-75 = test: NCI-60 SRB screen; type: cell-based, human; details: SNB-75, five dose
# SF-539 = test: NCI-60 SRB screen; type: cell-based, human; details: SF-539, five dose
# plasma testosterone = test: Testosterone ELISA assay in mice prostate cancer model; type: in vivo
# Description: A total of 16 mice from the TRAMP/FVB background ([…], male, average 45 days, average weight […], mice with prostate cancer) were taken and divided into 2 groups with 8 animals in each group. One group of mice was given a drug in 0.2 ml of DMSO and phosphate-buffered saline (1:10) ratio (5 mg/kg body weight, i.p., 5 days a week). The control group animals were treated with 0.2 ml of DMSO and phosphate-buffered saline (1:10) ratio. A total of eight mice, four animals from each group, were examined at 13 weeks of age, and the remaining animals from each group were examined at 20 weeks for prostate tumour development. Treatment was stopped 24 h before killing the animals.
# The BioVendor mouse/rat testosterone ELISA assay is a competitive immunoassay for the measurement of testosterone in rat and mouse serum or plasma based on the principle of competitive binding. An unknown amount of testosterone present in the sample (plasma or serum) and a known amount of testosterone conjugated to horseradish peroxidase compete for the binding sites of testosterone antiserum coated to the wells of a microplate. The sample was incubated with the microplate for 1 h, then washed four times. The HRP substrate solution was added followed by the stop solution. Colour change has been observed, and the optical density was measured at 450 nm.
# Assay procedures: Sufficient number of microplate wells were prepared to accommodate standard and samples in duplicates. The standard, sample, and control (10 µL each) were dispensed with new disposable tips into appropriate wells. Incubation buffer 100 µL was dispensed into each well. Afterward, enzyme conjugate (50 µL) was added to each well and incubated for 60 min at room temperature on a microplate mixer. The content of the wells was discarded, and the wells were rinsed 4 times with diluted wash solution (300 µL per well). The substrate solution (200 µL) was added to each well and incubated in the dark without shaking for 30 min. The reaction was stopped by adding a stop solution (2 N hydrochloric acid solution, 50 µL) to each well. The absorbance of each well was determined at 450 nm.
# U251 = test: NCI-60 SRB screen; type: cell-based, human; details: U251, five dose
# SNB-19 = test: NCI-60 SRB screen; type: cell-based; details: SNB-19, five dose
# [4] = Homo sapiens, MDA-MB-231/ATCC, five dose
smiles,measurement,setting,value
"COc1ccc(C2NC(=O)C(C#N)c3c2sc2c(F)cccc32)c(OC)c1 (centres unmarked) [Compound 5a, 1-(2,4-Dimethoxyphenyl)-4-cyano-8-fluoro-1,2-dihydro[1]benzothieno [2,3-c]pyridin-3(4H)-one]",inhibition at 10 µM,CCRF-CEM; Homo sapiens,28.1%
same,inhibition at 10 µM,PC-3; Homo sapiens,43.2%
same,melting point,,100 to 102 °C
same,inhibition at 10 µM,A498; Homo sapiens,74.8%
same,inhibition at 10 µM,DU-145; Homo sapiens,9.51%
same,inhibition at 10 µM,MCF7; Homo sapiens,75.5%
same,potency compared to staurosporine,[1],moderate activity
same,potency compared to staurosporine,[2],weak activity
same,potency compared to staurosporine,[3],moderate activity
same,inhibition at 10 µM,BT-549; Homo sapiens,78.6%
same,inhibition at 10 µM,MDA-MB-231/ATCC; Homo sapiens,27.3%
same,inhibition at 10 µM,OVCAR-5; Homo sapiens,1.24%
same,inhibition at 10 µM,"T-47D; Homo sapiens, T47D",38.3%
same,inhibition at 10 µM,MDA-MB-468; Homo sapiens,75.7%
same,inhibition at 10 µM,MALME-3M; Homo sapiens,60.3%
"COc1ccc(C2NC(=O)C(C#N)c3c2sc2c(F)cccc32)cc1 (centres unmarked) [Compound 5b, 4-Cyano-8-fluoro-1-(4-methoxyphenyl)-1,2-dihydro[1]benzothieno[2,3-c] pyridin-3(4H)-one]",inhibition at 10 µM,CCRF-CEM; Homo sapiens,66%
same,inhibition at 10 µM,PC-3; Homo sapiens,50.6%
same,melting point,,103 to 105 °C
same,inhibition at 10 µM,A498; Homo sapiens,68.8%
same,inhibition at 10 µM,DU-145; Homo sapiens,35.2%
same,inhibition at 10 µM,MCF7; Homo sapiens,67.4%
same,potency compared to staurosporine,[1],moderate activity
same,potency compared to staurosporine,[2],moderate activity
same,potency compared to staurosporine,[3],moderate activity
same,inhibition at 10 µM,RPMI-8226; Homo sapiens,36.9%
same,inhibition at 10 µM,BT-549; Homo sapiens,44.6%
same,inhibition at 10 µM,MDA-MB-231/ATCC; Homo sapiens,28.8%
same,inhibition at 10 µM,OVCAR-5; Homo sapiens,14.4%
same,inhibition at 10 µM,"T-47D; Homo sapiens, T47D",19.9%
same,inhibition at 10 µM,MDA-MB-468; Homo sapiens,66.3%
same,inhibition at 10 µM,MALME-3M; Homo sapiens,52.9%
"N#CC1C(=O)NC(c2ccccc2[N+](=O)[O-])c2sc3c(F)cccc3c21 (centres unmarked) [Compound 5c, 4-Cyano-8-fluoro-1-(2-nitrophenyl)-1,2-dihydro[1]benzothieno[2,3-c] pyridin-3(4H)-one]",GI50,"CCRF-CEM; Homo sapiens, five dose",26.3 µM
same,IC50,"CCRF-CEM; Homo sapiens, five dose",37.2 µM
same,LC50,"CCRF-CEM; Homo sapiens, five dose",> 100 µM
same,inhibition at 10 µM,CCRF-CEM; Homo sapiens,13.2%
same,TGI,CCRF-CEM; five dose,100 µM
same,GI50,"PC-3; Homo sapiens, five dose",13.6 µM
same,IC50,"PC-3; Homo sapiens, five dose",25.1 µM
same,inhibition at 10 µM,PC-3; Homo sapiens,20%
same,TGI,PC-3; five dose,100 µM
same,TGI,A498; five dose,5.98 µM
same,GI50,"A498; Homo sapiens, five dose",1320 nM
same,IC50,"A498; Homo sapiens, five dose",3.09 µM
same,inhibition at 10 µM,A498; Homo sapiens,161%
same,TGI,DU-145; five dose,100 µM
same,GI50,"DU-145; Homo sapiens, five dose",10.5 µM
same,IC50,"DU-145; Homo sapiens, five dose",19.1 µM
same,inhibition at 10 µM,DU-145; Homo sapiens,10.1%
same,inhibition at 10 µM,MCF7; Homo sapiens,76.4%
same,GI50,"MCF7; Homo sapiens, five dose",260 nM
same,IC50,"MCF7; Homo sapiens, five dose",550 nM
same,TGI,MCF7; five dose,10.00 µM
same,GI50,SNB-75; Homo sapiens,6.12 µM
same,IC50,SNB-75; Homo sapiens,> 100 µM
same,TGI,SNB-75,100 µM
same,potency compared to staurosporine,[1],half potency
same,potency compared to staurosporine,[2],higher potency
same,potency compared to staurosporine,[3],higher potency
same,potency relative to abiraterone,[3],fourfold
same,IC50,[3]; Homo sapiens,2080 nM
same,GI50,"RPMI-8226; Homo sapiens, five dose",10.6 µM
same,IC50,"RPMI-8226; Homo sapiens, five dose",34.7 µM
same,LC50,"RPMI-8226; Homo sapiens, five dose",> 100 µM
same,inhibition at 10 µM,RPMI-8226; Homo sapiens,58.8%
same,TGI,RPMI-8226; five dose,100 µM
same,GI50,SF-539; Homo sapiens,23 µM
same,IC50,SF-539; Homo sapiens,46.8 µM
same,TGI,SF-539,100 µM
same,TGI,BT-549; five dose,100 µM
same,GI50,"BT-549; Homo sapiens, five dose",16.5 µM
same,IC50,"BT-549; Homo sapiens, five dose",72.4 µM
same,inhibition at 10 µM,BT-549; Homo sapiens,10.8%
same,inhibition at 10 µM,MDA-MB-231/ATCC; Homo sapiens,24.5%
same,GI50,MDA-MB-231/ATCC; [4],11.6 µM
same,IC50,MDA-MB-231/ATCC; [4],33.1 µM
same,TGI,"MDA-MB-231/ATCC; MDA-MB-231/ATCC, five dose",100 µM
same,GI50,"OVCAR-5; Homo sapiens, five dose",730 nM
same,IC50,"OVCAR-5; Homo sapiens, five dose",3.39 µM
same,inhibition at 10 µM,OVCAR-5; Homo sapiens,115%
same,TGI,OVCAR-5; five dose,100 µM
same,potency relative to abiraterone (testosterone inhibition),plasma testosterone,1.1 folds
same,Plasma testosterone aver. conc.,"plasma testosterone; 5 mg/kg i.p., 5 days a week, ELISA, 5 mg/kg",12.26 nM and 12.26 ± 0.17 nM
same,GI50,"U251; Homo sapiens, U-251",2500 nM
same,IC50,"U251; Homo sapiens, U-251",12.6 µM
same,TGI,U251,100 µM
same,GI50,"T-47D; Homo sapiens, T47D, five dose",320 nM
same,IC50,"T-47D; Homo sapiens, T47D, five dose",> 100 µM
same,inhibition at 10 µM,"T-47D; Homo sapiens, T47D",97.5%
same,TGI,T-47D; five dose,100 µM
same,GI50,"MDA-MB-468; Homo sapiens, five dose",150 nM
same,IC50,"MDA-MB-468; Homo sapiens, five dose",240 nM
same,inhibition at 10 µM,MDA-MB-468; Homo sapiens,149%
same,TGI,MDA-MB-468; five dose,0.65 µM
same,GI50,"MALME-3M; Homo sapiens, five dose",22.6 µM
same,IC50,"MALME-3M; Homo sapiens, five dose",83.2 µM
same,inhibition at 10 µM,MALME-3M; Homo sapiens,25.3%
same,TGI,MALME-3M; five dose,100 µM
same,GI50,SNB-19; Homo sapiens,24.6 µM
same,IC50,SNB-19; Homo sapiens,44.7 µM
same,LC50,SNB-19; Homo sapiens,> 100 µM
same,TGI,SNB-19,100 µM
